Assay results published in US5229412A, “Method for relieving anxiety using 5-hydroxytryptamine-1A-receptor-binding compounds” (The Board of Trustees of the Leland Stanford Junior …, priority 1988, dated 1993).

How the values were obtained:
5-HT1A receptors = conditions: background statement; cited from earlier work
5-HT1A = target: T1, 5-HT1A (Rattus norvegicus, UniProt P19327); experiment: Radioligand binding, 5-HT1A sites labeled by ^3 H-8-OH-DPAT, rat cortex; conditions: for IC50: mean ± standard error of 3-4 experiments
T1 construct: rat brain were purchased from Pel-Freez; tissue Pel-Freez (Roger, AR); host or cells: rat brain (cortex) membranes
T1 sequence (P19327 1-422): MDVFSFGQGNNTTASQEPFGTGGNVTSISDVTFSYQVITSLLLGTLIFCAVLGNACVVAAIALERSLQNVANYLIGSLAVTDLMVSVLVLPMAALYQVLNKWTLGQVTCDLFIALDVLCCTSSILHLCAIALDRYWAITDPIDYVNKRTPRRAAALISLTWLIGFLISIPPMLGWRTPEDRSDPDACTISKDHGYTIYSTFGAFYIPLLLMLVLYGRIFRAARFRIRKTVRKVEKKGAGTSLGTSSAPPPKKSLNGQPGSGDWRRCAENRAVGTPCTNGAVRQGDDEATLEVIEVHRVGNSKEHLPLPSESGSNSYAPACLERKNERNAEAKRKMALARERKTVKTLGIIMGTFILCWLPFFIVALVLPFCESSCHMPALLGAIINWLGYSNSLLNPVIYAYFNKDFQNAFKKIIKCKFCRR
Experimental: (§1) Radioligand binding studies were performed described in Peroutka et al., Molecular Pharmacology (1979) 16:687-699. Briefly, rat brain were purchased from Pel-Freez (Roger, AR). On the day of study, the samples were thawed in Tris-HCl buffer. Tissues were homogenized in 20 volumes Tris-HCl buffer (pH 7.7 at 25° C.) using a Brinkmann Polytron and then centrifuged in an IEC B20A centrifuge at 49,000×g for 10 min. The supernatant was discarded, and the pellet was resuspended in the same volume of Tris-HCl buffer and incubated at 37° C. for 10 min prior to a second centrifugation at 49,000×g for 10 min. The final pellet was resuspended in 80 volumes of Tris-HCl buffer containing 10 μM pargyline, 4 mM calcium chloride and 0.1% ascorbic acid. The suspensions were immediately used in the binding assay. […] Following incubation at 25° C. for 30 minutes, the assays were rapidly filtered under vacuum through #32 glass filters (Schleicher and Scheull: Keene, NH) with two 5 ml washes using 50 mM Tris-HCl buffer. Radioactivity was measured by liquid scintillation spectroscopy in ml of 3a70 Counting Cocktail (Research Products International: Mt. Prospect, IL) at 54% efficiency. […] All drugs were diluted and dissolved in assay buffer.
(§2) Each experiment was performed in triplicate and repeated 3 to 6 times.

non-5-HT1A = experiment: Radioligand binding, non-5-HT1A sites labeled by ^3 H-5-HT + 100 nM 8-OH-DPAT, rat cortex; conditions: for potency at non-5-HT1A binding sites (in words) / IC50: rat cortex; for IC50: read-out: Drug Potency (IC50) non-5-HT1A (^3 H-5-HT + 100 nM 8-OH-DPAT), mean ± standard error of 3-4 experiments
Experimental: as §1, with “Briefly,” for “Radioligand binding studies were performed described in Peroutka et al., Molecular Pharmacology (1979) 16:687-699. Briefly,”, “buffer.” for “buffer. Radioactivity was measured by liquid scintillation spectroscopy in ml of 3a70 Counting Cocktail (Research Products International: Mt. Prospect, IL) at 54% efficiency.”
as §2

5-HT2 = target: T2, 5-HT2 (Rattus norvegicus, UniProt P14842); experiment: Radioligand binding, 5-HT2 sites labeled by ^3 H-spiperone, rat cortex; conditions: for IC50: mean ± standard error of 3-4 experiments
T2 construct: rat brain were purchased from Pel-Freez; tissue Pel-Freez (Roger, AR); host or cells: rat brain (cortex) membranes
T2 sequence (P14842 whole entry): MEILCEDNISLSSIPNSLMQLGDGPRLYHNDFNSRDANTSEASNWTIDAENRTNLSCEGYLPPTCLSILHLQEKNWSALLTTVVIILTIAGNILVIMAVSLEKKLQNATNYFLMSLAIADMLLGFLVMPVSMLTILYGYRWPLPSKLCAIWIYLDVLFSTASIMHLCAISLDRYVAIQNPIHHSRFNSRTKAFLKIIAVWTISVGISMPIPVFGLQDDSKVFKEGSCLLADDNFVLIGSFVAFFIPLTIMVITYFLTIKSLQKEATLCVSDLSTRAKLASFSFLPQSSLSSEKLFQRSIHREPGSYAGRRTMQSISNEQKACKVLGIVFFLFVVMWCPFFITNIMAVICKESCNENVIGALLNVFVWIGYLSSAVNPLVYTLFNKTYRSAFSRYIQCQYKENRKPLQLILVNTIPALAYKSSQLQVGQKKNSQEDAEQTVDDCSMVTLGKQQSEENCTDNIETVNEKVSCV
Experimental: as §1, §2

β-adrenergic receptors = experiment: Radioligand binding, β-adrenergic receptors labeled by ^3 H-dihydroalprenolol (^3 H-DHA), rat cortex; conditions: for IC50: mean ± standard error of 3-4 experiments, read-out: Drug Potency (IC50) β-adrenergic (^3 H-DHA); for potency at β-adrenergic receptors relative to 5-HT1A (in words): labeled by ^3 H-DHA
Experimental: as §1, §2

[1] = Stability of Compounds 8-11 on storage; format: physicochemical; conditions: methanol; 10 mg/ml, 20° C., 'too months'; read-out: decomposition in methanolic solution
Experimental: Methanolic solutions (10 mg/ml) are suitable storage forms.

Structure (SMILES)	potency at the 5-HT1A binding site (in words) (5-HT1A)	IC50 (5-HT1A) [nM]	potency at non-5-HT1A binding sites (in words) (non-5-HT1A)	IC50 (non-5-HT1A) [nM]	potency at 5-HT2 binding sites (in words) (5-HT2)	IC50 (5-HT2) [nM]	IC50 (β-adrenergic receptors) [nM]	degraded at 1460 h [1] [%]	inhibition of [^3 H]-8-OH-DPAT binding to 5-HT1A receptors (in words) (5-HT1A receptors)	potency at β-adrenergic receptors relative to 5-HT1A (in words) (β-adrenergic receptors)	selectivity for β-adrenergic receptors (in words) (β-adrenergic receptors)	Kd (non-5-HT1A; used for Ki calculation) [nM]
CC(C)NC[C@H](O)COc1cccc2ccccc12 [(-)-propranolol]	–	–	–	–	–	–	–	–	potent inhibitors	–	–	–
O=C1CC2(CCCC2)CC(=O)N1CCCCN1CCN(c2ncccn2)CC1 [Buspirone]	–	–	–	–	–	–	–	–	potent inhibitors	–	–	–
CC(C)(NC(=O)CBr)[C@H]1CC[C@@](C)(NCC(O)COc2cccc3[nH]c(C#N)cc23)CC1 (some centres unmarked) [Compound 10, N^8-(Bromoacetyl)-N1-[3-[(2-cyano-4-indolyl)oxy]-2-hydroxYpropyl]-(Z)-1,8-diamino-p-menthane]	–	–	–	–	–	–	–	< 5	–	–	–	–
CC(C)(NCC(O)COc1cccc2[nH]c(C#N)cc12)[C@H]1CC[C@@](C)(NC(=O)CBr)CC1 (some centres unmarked) [Compound 11]	similar, though less potent, affinity	5.3 ± 2	least potent	410 ± 200	least potent	4400 ± 2000	1.1 ± 0.02	< 5	–	–	–	–
COC(=O)/C=C/C(=O)NC(C)(C)[C@H]1CC[C@@](C)(NCC(O)COc2cccc3[nH]ccc23)CC1 (some centres unmarked) [Compound 12]	similar, though less potent, affinity	31 ± 8	least potent	270 ± 50	least potent	1100 ± 500	2.8 ± 0.5	–	–	–	most selective for β-adrenergic receptors	–
O=C1c2ccccc2S(=O)(=O)N1CCCCN1CCN(c2ncccn2)CC1 [TVX Q 7821]	–	–	–	–	–	–	–	–	potent inhibitors	–	–	–
NCCc1c[nH]c2ccc(O)cc12 [^3 H-5-HT, 5-Hydroxytryptamine]	–	–	–	–	–	–	–	–	–	–	–	3.2
CN1CCC(=C2c3ccccc3C=Cc3ccccc32)CC1 [cyproheptadine]	–	–	–	–	–	–	–	–	potent inhibitors	–	–	–
CN1CCC(=C2c3ccccc3CCc3sccc32)CC1 [pizotifen]	–	–	–	–	–	–	–	–	potent inhibitors	–	–	–

Now from value to molecule, other results behind:

potency at the 5-HT1A binding site (in words) (5-HT1A)	IC50 (5-HT1A) [nM]	potency at non-5-HT1A binding sites (in words) (non-5-HT1A)	IC50 (non-5-HT1A) [nM]	potency at 5-HT2 binding sites (in words) (5-HT2)	IC50 (5-HT2) [nM]	IC50 (β-adrenergic receptors) [nM]	degraded at 1460 h [1] [%]	Structure (SMILES)	inhibition of [^3 H]-8-OH-DPAT binding to 5-HT1A receptors (in words) (5-HT1A receptors)	potency at β-adrenergic receptors relative to 5-HT1A (in words) (β-adrenergic receptors)	selectivity for β-adrenergic receptors (in words) (β-adrenergic receptors)	Kd (non-5-HT1A; used for Ki calculation) [nM]
similar, though less potent, affinity	6.3 ± 2	least potent	140 ± 70	least potent	3100 ± 1000	1.3 ± 0.2	< 5	CC(C)(NC(=O)CBr)[C@H]1CC[C@@](C)(NCC(O)COc2cccc3[nH]ccc23)CC1 (some centres unmarked) [Compound 8, N^8-(Bromoacetyl)-N^1-[3-(4-indolyloxy)-2-hydroxypropyl]-(Z)-1,8-diamino-p-menthane]	–	–	–	–
extremely potent	0.71 ± 0.02	approximately less potent	430 ± 200	approximately less potent	4000 ± 500	5.6 ± 0.5	< 5	CC(C)(NCC(O)COc1cccc2[nH]ccc12)[C@H]1CC[C@@](C)(NC(=O)CBr)CC1 (some centres unmarked) [Compound 9, N^1 (Bromoacetyl)-N^8-[3-(4-indolyloxy)-2-hydroxypropyl]-(Z)-1,8-diamino-p-menthane]	–	approximately an order of magnitude less potent	–	–
extremely potent	1.2 ± 0.2	approximately less potent	2900 ± 800	approximately less potent	3600 ± 1000	10 ± 5	–	COC(=O)/C=C/C(=O)N[C@]1(C)CC[C@H](C(C)(C)NCC(O)COc2cccc3[nH]ccc23)CC1 (some centres unmarked) [Compound 13]	–	approximately an order of magnitude less potent	–	–
similar, though less potent, affinity	26 ± 8	least potent	46 ± 10	least potent	–	4.2 ± 2	–	CC(C)(NC(=O)C1=CC2C=CC1CC2)[C@H]1CC[C@@](C)(NCC(O)COc2cccc3[nH]ccc23)CC1 (some centres unmarked) [Compound 14]	–	–	most selective for β-adrenergic receptors	–
extremely potent	1.1 ± 0.1	approximately less potent	1300 ± 500	approximately less potent	–	19 ± 9	–	CC(C)(NCC(O)COc1cccc2[nH]ccc12)[C@H]1CC[C@@](C)(NC(=O)C2=CC3C=CC2CC3)CC1 (some centres unmarked) [Compound 15]	–	approximately an order of magnitude less potent	–	–
